The target in one assay is human AT1R (Homo sapiens (Human), UniProt P30556). Put plainly: Counterscreen radioligand binding assay, displacement of 125I-[Sar1, Ile8]-Angiotensin II, hAT1R WT. The conditions noted are these: for inhibition at 1 µM / inhibition at 10 µM: 125I-[Sar1, Ile8]-Ang II, semi-quantitative score; for inhibition at 1 µM: compound at 1 μM, read-out: % Displaced radioligand at 1 μM; for inhibition at 10 µM: compound at 10 μM, read-out: % Displaced radioligand at 10 μM; for IC50: HEK-293 cell membranes, read-out: Binding affinity On hAT1R IC50. The method in brief:
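Compounds displaced 0.05 nM 125I-[Sar1, Ile8]-Ang II from human AT1R in HEK-293 membranes (1 h, 25° C; Tris/MgCl2/EDTA/BSA buffer, pH 7.4). Readout was filtration and scintillation counting, with non-specific binding set by 10 μM [Sar1]-Ang II. Values are % displacement at 1 μM and […], or IC50 from eight-point four-parameter fits.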

In a further assay the target is human AT2R fused to Cb23 (Homo sapiens, UniProt P50052). Put plainly: Radioligand binding assay, displacement of 125I-[Sar1, Ile8]-Angiotensin II, hAT2R Cb23. The conditions noted are these: displacement of 125I-[Sar1, Ile8]-Angiotensin II, human AT2R fused to Cb23, HEK-293 cell membrane preparations; read-out: Binding affinity on hAT2R_Cb23 IC50. An outline of the steps:
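Membranes from HEK-293 cells expressing human AT2R fused to Cb23 were incubated with 0.05 nM 125I-[Sar1, Ile8]-Angiotensin II in 100 μL buffer (50 mM Tris, 5 mM MgCl2, 1 mM EDTA, 0.1% BSA, pH 7.4) for one hour at 25° C. Ligands were tested as eight-point dose-response curves in duplicate, with C21 and Angiotensin II as references.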

Each structure is given as a SMILES string. Some results are limits rather than exact numbers.

Sequence of human AT1R (P30556 whole entry): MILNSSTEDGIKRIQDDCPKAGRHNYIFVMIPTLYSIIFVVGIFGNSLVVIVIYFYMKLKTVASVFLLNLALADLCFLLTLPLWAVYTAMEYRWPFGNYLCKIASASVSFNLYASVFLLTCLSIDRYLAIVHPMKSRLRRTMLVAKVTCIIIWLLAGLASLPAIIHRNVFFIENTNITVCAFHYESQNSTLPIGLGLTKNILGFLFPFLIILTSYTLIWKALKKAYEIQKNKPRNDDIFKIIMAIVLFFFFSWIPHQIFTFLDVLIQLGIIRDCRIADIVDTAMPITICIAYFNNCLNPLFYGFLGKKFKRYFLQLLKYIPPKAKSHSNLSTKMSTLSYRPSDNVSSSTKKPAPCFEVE
Sequence of human AT2R fused to Cb23 (P50052 whole entry, looked up, the tested form may be a part): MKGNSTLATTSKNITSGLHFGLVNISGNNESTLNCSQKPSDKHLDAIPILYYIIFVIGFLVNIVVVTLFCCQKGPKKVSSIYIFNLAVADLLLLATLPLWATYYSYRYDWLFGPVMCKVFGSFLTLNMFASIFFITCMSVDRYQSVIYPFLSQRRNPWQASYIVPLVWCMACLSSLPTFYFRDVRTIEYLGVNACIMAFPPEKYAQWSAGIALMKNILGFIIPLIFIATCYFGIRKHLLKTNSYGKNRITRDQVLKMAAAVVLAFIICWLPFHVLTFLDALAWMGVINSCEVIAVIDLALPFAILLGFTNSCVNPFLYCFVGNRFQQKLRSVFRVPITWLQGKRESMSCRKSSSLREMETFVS

The IC50 is the concentration at which inhibition is half-maximal. Consider `CC(C)Cc1cc(C2CC2)c(-c2nn[nH]n2)c(N2CCN(Cc3cccnn3)CC2)c1` [Compound A-169, 3-[[4-[3-cycloprop-yl-5-isobutyl-2-(2H-tetrazol-5-yl)phen-yl]piperazin-1-yl]-methyl]pyridazine], for which, on human AT1R, the inhibition at 1 µM was below 30% and the inhibition at 10 µM was below 30%. For the same compound, on human AT2R fused to Cb23, the IC50 was 0.0253 µM.
With `Cc1ccn2c(=O)cc(CN3CCN(c4cc(CC(C)C)ccc4-c4nn[nH]n4)CC3)nc2c1` [Compound A-72, 2-[[4-[5-isobutyl-2-(2H-tetrazol-5-yl)phenyl]piperazin-1-yl]methyl]-8-methyl-pyrido[1,2-a]pyrimidin-4-one], at human AT1R, the inhibition at 1 µM was below 30% and the inhibition at 10 µM was below 30%. Moreover, the IC50 at human AT2R fused to Cb23 turned out to be 8.39 µM.
For `c1ccc2sc(CN3CCN(c4cc(NC5CCCC5)ccc4-c4nn[nH]n4)CC3)nc2c1` [Compound A-64, 3-[4-(1,3-benzothi-azol-2-ylmethyl)-piperazin-1-yl]-N-cyclopentyl-4-(2H-tetrazol-5-yl)aniline], on human AT1R, the inhibition at 1 µM is below 30%, the inhibition at 10 µM is below 30% and the IC50 was 39.7 µM. Besides, at human AT2R fused to Cb23, the half-inhibitory concentration (IC50) turned out to be 1.56 µM.
`CC(C)Oc1ccc(-c2nn[nH]n2)c(CN2CCN(c3nc4ccccc4s3)CC2)c1` [Compound A-50, 2-[4-[[5-isoprop-oxy-2-(2H-tetrazol-5-yl)phenyl]meth-yl]piperazin-1-yl]-1,3-benzothiazole]: at human AT1R, the inhibition at 1 µM is below 30% and the concentration for half-maximal inhibition (IC50) was found to be 28.8 µM. Moreover, the IC50 on human AT2R fused to Cb23 came out at 10.5 µM.
On to `Cc1cnc(CN2CCN(c3cc(CC(C)C)cc(F)c3-c3nn[nH]n3)CC2C)s1` (stereo not shown) [Compound A-222, 2-[[4-[3-fluoro-5-isobutyl-2-(2H-tetrazol-5-yl)phenyl]-2-methyl-piperazin-1-yl]methyl]-5-methyl-thiazole], for which, on human AT1R, the inhibition at 1 µM was below 30% and the inhibition at 10 µM is below 30%. Besides, the IC50 at human AT2R fused to Cb23 came out at 0.00947 µM.
As for `Cc1cccnc1CN1CCN(c2cc(CC(C)C)cc(F)c2-c2nn[nH]n2)CC1` [Compound A-203, 1-[3-fluoro-5-isobutyl-2-(2H-tetrazol-5-yl)phen-yl]-4-[(3-methyl-2-pyridyl)methyl]-piperazine], at human AT1R, the inhibition at 1 µM is below 30% and the inhibition at 10 µM is below 30%. Also, on human AT2R fused to Cb23, the IC50 amounted to 0.155 µM.
On to `CC(C)Cc1ccc(-c2nn[nH]n2)c(N2CCN(Cc3nc4ccccc4n(C)c3=O)CC2)c1` [Compound A-79, 3-[[4-[5-isobutyl-2-(2H-tetrazol-5-yl)-phenyl]piperazin-1-yl]methyl]-1-methyl-quinoxalin-2-one], for which, on human AT1R, the inhibition at 1 µM was below 30% and the inhibition at 10 µM was below 30%. For the same compound, the IC50 on human AT2R fused to Cb23 amounted to 4.72 µM.
Turning to `CCc1ccc(C(=O)NS(=O)(=O)CC)c(N2CCN(Cc3nc4ccccc4s3)CC2)c1` [Compound A-33, 2-[4-(1,3-benzothiazol-2-ylmethyl)piperazin-1-yl]-4-ethyl-N-ethylsulfonyl-benzamide], on human AT1R, the inhibition at 1 µM was below 30% and the inhibition at 10 µM was below 30%. Besides, the IC50 on human AT2R fused to Cb23 was determined as 3.07 µM.
Consider `CCOc1ccc(C(=O)NS(=O)(=O)CC)c(N2CCN(Cc3nc4ccccc4s3)CC2)c1` [Compound A-38, 2-[4-(1,3-benzothiazol-2-ylmethyl)piperazin-1-yl]-4-ethoxy-N-ethylsulfonyl-benzamide], for which, on human AT1R, the inhibition at 1 µM is below 30%, the inhibition at 10 µM lay in the range of 30 to 50% and the half-maximal inhibitory concentration (IC50) is 13.6 µM. In addition, the IC50 at human AT2R fused to Cb23 worked out at 2.4 µM.
In the same order, the values of `CCc1nc2ccc(N(Cc3cccnc3)C(=O)c3cccs3)cc2c(=O)n1CC1CCN(c2ccccc2-c2nn[nH]n2)CC1` [Compound A-244, N-[2-ethyl-4-oxo-3-[[1-[2-(2H-tetrazol-5-yl)phenyl]-4-piperidyl]methyl]quinazolin-6-yl]-N-(3-pyridylmethyl)thiophene-2-carboxamide] are below 30%, above 50%, 6.62 µM and 0.104 µM.
Consider `CC(C)Cc1ccc(-c2nn[nH]n2)c(N2CCN(Cc3cc(C4CC4)on3)CC2)c1` [Compound A-102, 5-cyclopropyl-3-[[4-[5-isobutyl-2-(2H-tetrazol-5-yl)phenyl]piperazin-1-yl]methyl]isoxazole], for which, at human AT1R, the inhibition at 1 µM is below 30% and the inhibition at 10 µM was below 30%. The IC50 on human AT2R fused to Cb23 was determined as 7.07 µM.
For the compound `c1ccc2sc(CN3CCN(c4cc(NCC5CC5)cnc4-c4nn[nH]n4)CC3)nc2c1` [Compound A-149, 5-[4-(1,3-benzo-thiazol-2-ylmethyl)-piperazin-1-yl]-N-(cyclopropylmeth-yl)-6-(2H-tetrazol-5-yl)pyridin-3-amine], at human AT1R, the inhibition at 1 µM was below 30% and the inhibition at 10 µM was below 30%. Also, the IC50 on human AT2R fused to Cb23 worked out at 8.4 µM.
Turning to `Fc1cc(C2CC2)cc(N2CCN(Cc3nc4ccccc4s3)CC2)c1-c1nn[nH]n1` [Compound A-125, 2-[[4-[5-cycloprop-yl-3-fluoro-2-(2H-tetrazol-5-yl)phen-yl]piperazin-1-yl]-methyl]-1,3-benzo-thiazole], at human AT1R, the inhibition at 1 µM was below 30% and the inhibition at 10 µM was below 30%. Moreover, at human AT2R fused to Cb23, the IC50 was 0.389 µM.
In the case of `CC(C)Cc1cnc(-c2nn[nH]n2)c(N2CCN(Cc3nc4ccccc4s3)CC2)c1` [Compound A-147, 2-[[4-[5-isobutyl-2-(2H-tetrazol-5-yl)-3-pyridyl]piperazin-1-yl]methyl]-1,3-benzothiazole], on human AT1R, the inhibition at 1 µM is below 30% and the inhibition at 10 µM was below 30%. In addition, the IC50 on human AT2R fused to Cb23 turned out to be 1.47 µM.
Consider `Cc1cnc(CN2CCN(c3cc(CC(C)C)cnc3-c3nn[nH]n3)CC2)s1` [Compound A-221, 2-((4-(5-isobutyl-2-(2H-tetrazol-5-yl)pyridin-3-yl)piperazin-1-yl)methyl)-5-methylthiazole], for which, at human AT1R, the inhibition at 1 µM was below 30% and the inhibition at 10 µM is below 30%. Further, the IC50 at human AT2R fused to Cb23 is 2.74 µM.
On to `c1ccc2sc(CN3CCN(c4cc(OC5CC5)ccc4-c4nn[nH]n4)CC3)nc2c1` [Compound A-52, 2-[[4-[5-(cyclopropoxy)-2-(2H-tetrazol-5-yl)phenyl]piperazin-1-yl]methyl]-1,3-benzothiazole], for which, on human AT1R, the inhibition at 1 µM is below 30% and the inhibition at 10 µM is below 30%. Besides, the half-maximal inhibitory concentration (IC50) on human AT2R fused to Cb23 turned out to be 4.42 µM.
`Cc1ccc(CN2CCN(c3cc(CC(C)C)ccc3-c3nn[nH]n3)CC2)nn1` [Compound A-113]: on human AT1R, the inhibition at 1 µM was below 30% and the inhibition at 10 µM is below 30%. At human AT2R fused to Cb23, the IC50 was found to be 7.07 µM.
Turning to `CC(C)Cc1ccc(-c2nn[nH]n2)c(N2CCN(C(C)c3cccnn3)CC2)c1` (stereo not shown) [Compound A-212, 3-[1-[4-[5-isobutyl-2-(2H-tetrazol-5-yl)-phenyl]piperazin-1-yl]ethyl]pyrid-azine], on human AT1R, the inhibition at 1 µM was below 30% and the inhibition at 10 µM was below 30%. Also, the IC50 on human AT2R fused to Cb23 was 0.434 µM.
In the case of `CCNc1ccc(-c2nn[nH]n2)c(N2CCN(Cc3nc4ccccc4s3)CC2)c1` [Compound A-59, 3-[4-(1,3-benzothi-azol-2-ylmethyl)-piperazin-1-yl]-N-ethyl-4-(2H-tetrazol-5-yl)aniline], on human AT1R, the inhibition at 1 µM is below 30% and the inhibition at 10 µM is below 30%. Further, at human AT2R fused to Cb23, the IC50 came to 4.75 µM.
With `CC(C)Oc1cc(N2CCN(Cc3nc4ccccc4s3)CC2)c(-c2nn[nH]n2)cc1C1CC1` [Compound A-121, 2-[[4-[4-cycloprop-yl-5-isopropoxy-2-(2H-tetrazol-5-yl)-phenyl]piperazin-1-yl]methyl]-1,3-benzothiazole], on human AT1R, the inhibition at 1 µM was below 30%, the inhibition at 10 µM lay within 30 to 50% and the half-inhibitory concentration (IC50) was 11.7 µM. For the same compound, the IC50 at human AT2R fused to Cb23 was determined as 2.78 µM.
For `CCc1cc(-c2nn[nH]n2)c(N2CCN(Cc3nc4ccccc4s3)CC2)cc1OC(C)C` [Compound A-119, 2-[[4-[4-ethyl-5-isopropoxy-2-(2H-tetrazol-5-yl)phen-yl]piperazin-1-yl]-methyl]-1,3-benzo-thiazole], on human AT1R, the inhibition at 1 µM was below 30% and the inhibition at 10 µM was below 30%. In addition, the IC50 on human AT2R fused to Cb23 was determined as 9.42 µM.
Turning to `Cc1cc(C2CC2)cc(N2CCN(Cc3nc4ccccc4s3)CC2)c1-c1nn[nH]n1` [Compound A-127, 2-[[4-[5-cycloprop-yl-3-methyl-2-(2H-tetrazol-5-yl)phen-yl]piperazin-1-yl]-methyl]-1,3-benzo-thiazole], on human AT1R, the inhibition at 1 µM was below 30% and the inhibition at 10 µM was below 30%. Moreover, the IC50 at human AT2R fused to Cb23 is 0.0744 µM.
`COc1cnc(CN2CCN(c3cc(CC(C)C)cc(F)c3-c3nn[nH]n3)CC2)cc1OC` [Compound A-207, 1-[(4,5-dimethoxy-2-pyridyl)methyl]-4-[3-fluoro-5-isobutyl-2-(2H-tetrazol-5-yl)phenyl]piperazine]: on human AT1R, the inhibition at 1 µM was below 30% and the inhibition at 10 µM is below 30%. The IC50 at human AT2R fused to Cb23 came to 1.21 µM.
For the compound `CC(C)Cc1ccc(-c2nn[nH]n2)c(N2CCN(Cc3nn(C)c4ccccc34)CC2)c1` [Compound A-81, 3-[[4-[5-isobutyl-2-(2H-tetrazol-5-yl)-phenyl]piperazin-1-yl]methyl]-1-methyl-indazole], at human AT1R, the inhibition at 1 µM was below 30% and the inhibition at 10 µM was below 30%. The IC50 at human AT2R fused to Cb23 was determined as 1.84 µM.

The values are drawn from patent US20240368133A1, “Compounds for the Treatment of Pain, in Particular, Neuropathic Pain, and/or Other Diseases or Disorders that are Associated with AT2R and/or AT2R Mediated Signaling” (Confo Therapeutics N.V., priority 2021, published 2024).
